This note sets out measurements from PubChem BioAssay AID651686 (The Scripps Research Institute Molecular Screening Center, 2012).

The source made the active and inactive calls. How the calls were made is not given here. Some results are limits rather than exact numbers.

This assay has as its system OPRD1 counterscreen cells, luminescence, activation. The experiment in a line: OPRD1 cell luminescence activation counter-screen – dose response, counter-screen for OPRM1-OPRD1 heterodimer activator project, late-stage follow-up (AID 651686). A general note: A counterscreen serves to expose hits that act by an unwanted route or on another target.
For the compound `OCC1(CCc2ccccc2)CCN(Cc2cc(F)ccc2-n2cccn2)CC1`, the EC50 (as a rule, the concentration giving half of the maximal effect) was > 40 µM (inactive). The same measure for `CCOC(=O)C1(CCc2ccccc2)CCN(Cc2cc(C)cc(C)c2)CC1`: > 40 µM (inactive). As for `CCOC(=O)C1(Cc2ccccc2)CCN(Cc2cccn2-c2cccnc2)CC1`, the figure is > 40 µM (inactive). For the compound `CCOC(=O)C1(Cc2ccccc2)CCN(Cc2cccn2-c2nccs2)CC1`, the EC50 is > 40 µM (inactive).

Turning to `CCOC(=O)C1(CC2CCCCO2)CCN(Cc2c(C)cc(C)cc2-n2cccn2)CC1` (stereo unspecified), the EC50 is > 40 µM (inactive). As for `CCOC(=O)C1(CCOc2ccccc2)CCN(Cc2ccc(O)c(OC)c2)CC1`, the EC50 is > 40 µM (inactive). `CCOC(=O)C1(CCc2ccccc2)CCN(Cc2ccccc2C)CC1`: the EC50 is > 40 µM (inactive). Regarding `CCOC(=O)C1(CCc2ccccc2)CCN(Cc2ccc(OC(C)C)c(C#N)c2)CC1`, the EC50 is > 40 µM (inactive). Consider `CCOC(=O)C1(CCc2ccccc2)CCN(Cc2ccc(NC(C)=O)cc2)CC1`, for which the EC50 was 1.1 µM. As for `CCOC(=O)C1(CCOc2ccccc2)CCN(Cc2cccn2-c2cccnc2)CC1`, the EC50 is > 40 µM (inactive). On to `CCOC(=O)C1(CCCc2ccccc2)CCN(Cc2cnn(C)c2)CC1`, for which the EC50 was > 40 µM (inactive).
